Test results published in patent EP4129284B1, “SERTACONAZOL FOR PROVIDING A SPORISTATIC AND/OR SPORICIDAL EFFECT” (Dr. Pfleger Arzneimittel GmbH, priority 2021, dated 2023).

Columns and labels:
[1] = system: S. brevicaulis; experiment: Full skin model infected with spores, treatment, histology (PAS-staining); type: cell-based, Scopulariopsis brevicaulis; settings: 48 h and 72 h, sertaconazol 100, ciclopiroxolamin 400, terbinafin 100 µg/mL, Fig. 6, stated as 'the same applies' as for E. floccosum
From the text: (§1) For an application in vivo, there is the additional requirement for the antimycotic substances to evoke a targeted antimycotic activity in the presence of human cells. Thus, 3D-cell-cultures such as full skin models are used to simulate the in vivo conditions. Such full skin models are for example described in Reddersen K, Wiegand C, Elsner P, Hipler UC. Three-dimensional human skin model infected with Staphylococcus aureus as a tool for evaluation of bioactivity and biocompatibility of antiseptics. Int J Antimicrob Agents. 2019; 54(3):283-291; Wiegand C, Fink S, Beier O, Horn K, Pfuch A, Schimanski A, Grünler B, Hipler UC, Elsner P. Dose- and Time-Dependent Cellular Effects of Cold Atmospheric Pressure Plasma Evaluated in 3D Skin Models. Skin Pharmacol Physiol. 2016;29(5):257-265. Particularly, such full skin models are made of a collagen matrix, which is colonized with primary human fibroblasts, and a fully differentiated epidermis made of primary human keratinocytes. For the experiments, the model is infected in vitro with spores, such that a determination of the sporistatic or sporicidal influence of the substances to be examined at in vivo relevant conditions is allowed. Compared to a 2D-model, the 3D full skin model has the advantage that the cells are in their natural three-dimensional surrounding and show a corresponding behaviour. Such, the antimycotic and sporistatic or sporicidal effects can be examined in situ and in the presence of human cells.
(§2) The spore suspensions and the solutions of sertaconazol, ciclopiroxolamin and terbinafin were prepared as in Example 1, wherein the respective test concentrations were obtained by diluting these solutions in ultrapure water (WFI; Fresenius Kabi) instead of SGB (Merck). Full skin models were produced as previously described [Reddersen K, Wiegand C, Elsner P, Hipler UC. […] 2019; 54(3):283-291; Wiegand C, Fink S, Beier O, Horn K, Pfuch A, Schimanski A, Grünler B, Hipler UC, Elsner P. Dose- and Time-Dependent Cellular Effects of Cold Atmospheric Pressure Plasma Evaluated in 3D Skin Models. […]

[2] = system: E. floccosum; experiment: Full skin model infected with spores, treatment, histology; type: cell-based, Epidermophyton floccosum; settings: 48 h and 72 h, sertaconazol 0.010, ciclopiroxolamin 400, terbinafin 0.200 µg/mL
From the text: as §1, §2

| SMILES | outgrowth of S. brevicaulis [1] | outgrowth of E. floccosum [2] |
| --- | --- | --- |
| Cc1cc(C2CCCCC2)n(O)c(=O)c1 [Ciclopiroxolamin, ciclopiroxolamin] | only reduced | only reduced |
| Clc1ccc(C(Cn2ccnc2)OCc2csc3c(Cl)cccc23)c(Cl)c1 (stereo not drawn) [Sertaconazol, sertaconazol] | inhibited | inhibited |
| CN(C/C=C/C#CC(C)(C)C)Cc1cccc2ccccc12 [Terbinafin, terbinafin] | only reduced | only reduced |
